According to the supplement of paper PMC10307832:

Compound: CC1(C)CNc2cc(NC(=O)c3cccnc3NCc3ccncc3)ccc21 [Motesanib] + CC(=O)c1c(C)c2cnc(Nc3ccc(N4CCNCC4)cn3)nc2n(C2CCCC2)c1=O [Palbociclib] (partner 0.5 µM)
Experiment: relative viability (nuclei count vs DMSO), 5 days (fraction); higher = more cells survive
Details: first compound 0.01 µM
Procedure, shortened: (§1)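 Lung cancer cell lines were pin-tool dosed in 1536-well plates on the day after seeding, with either a lone drug or a fixed anchor-drug dose plus five library-drug doses (not always all listed) in √10 steps. Nuclei were counted on 4× images after 5 days. Relative viability is the ratio of treated-well to vehicle-well nuclei counts, with each value a median of duplicate plates.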

Which relative viability does the source give for NCI-H2342 here?
The relative viability was 0.508.

NCI-H727 was tested. Which relative viability did it give?
Its relative viability is 0.631.

Which relative viability does the source give for NCI-H1650 here?
The relative viability was 0.351.

For NCI-H1993, which relative viability is on record?
The relative viability was 0.675.

With SW 1573 as the cell line, how does the relative viability read?
Its relative viability is 0.321.

NCI-H838 was tested. Which relative viability did it give?
Its relative viability is 0.204.

With LCLC-103H as the cell line, how does the relative viability read?
The relative viability was 0.505.

For NCI-H520, which relative viability is on record?
Its relative viability is 0.209.

For NCI-H2126, which relative viability is on record?
Its relative viability is 0.333.

With EMC-BAC-2 as the cell line, how does the relative viability read?
Its relative viability is 0.513.

For NCI-H2085, which relative viability is on record?
The relative viability was 0.512.

With HCC-366 as the cell line, how does the relative viability read?
Its relative viability is 0.354.

NCI-H1648 was tested. Which relative viability did it give?
The relative viability was 0.305.

Same assay, conditions: first compound 0.03162 µM

With NCI-H2342 as the cell line, how does the relative viability read?
The relative viability was 0.52.

NCI-H727 was tested. Which relative viability did it give?
Its relative viability is 0.652.

For NCI-H1650, which relative viability is on record?
The relative viability was 0.385.

With NCI-H1993 as the cell line, how does the relative viability read?
The relative viability was 0.622.

For SW 1573, which relative viability is on record?
Its relative viability is 0.385.

NCI-H838 was tested. Which relative viability did it give?
Its relative viability is 0.203.

With LCLC-103H as the cell line, how does the relative viability read?
Its relative viability is 0.469.

How did the relative viability turn out when NCI-H520 was run?
Its relative viability is 0.215.

With NCI-H2126 as the cell line, how does the relative viability read?
Its relative viability is 0.35.

For EMC-BAC-2, which relative viability is on record?
The relative viability was 0.511.

NCI-H2085 was tested. Which relative viability did it give?
The relative viability was 0.488.

Which relative viability does the source give for HCC-366 here?
Its relative viability is 0.36.

Same assay, conditions: first compound 0.1 µM

For NCI-H2342, which relative viability is on record?
The relative viability was 0.539.

With NCI-H727 as the cell line, how does the relative viability read?
Its relative viability is 0.687.

With NCI-H1650 as the cell line, how does the relative viability read?
Its relative viability is 0.349.

For NCI-H1993, which relative viability is on record?
The relative viability was 0.752.

Which relative viability does the source give for SW 1573 here?
The relative viability was 0.498.

How did the relative viability turn out when NCI-H838 was run?
Its relative viability is 0.213.

LCLC-103H was tested. Which relative viability did it give?
Its relative viability is 0.525.

NCI-H520 was tested. Which relative viability did it give?
The relative viability was 0.235.

For NCI-H2126, which relative viability is on record?
The relative viability was 0.341.

With EMC-BAC-2 as the cell line, how does the relative viability read?
Its relative viability is 0.526.

With NCI-H2085 as the cell line, how does the relative viability read?
Its relative viability is 0.471.

HCC-366 was tested. Which relative viability did it give?
The relative viability was 0.367.

Same assay, conditions: first compound 0.3162 µM

NCI-H2342 was tested. Which relative viability did it give?
Its relative viability is 0.527.

NCI-H727 was tested. Which relative viability did it give?
The relative viability was 0.639.

For NCI-H1650, which relative viability is on record?
Its relative viability is 0.346.

Which relative viability does the source give for NCI-H1993 here?
Its relative viability is 0.626.

With SW 1573 as the cell line, how does the relative viability read?
The relative viability was 0.38.

NCI-H838 was tested. Which relative viability did it give?
Its relative viability is 0.198.

How did the relative viability turn out when LCLC-103H was run?
Its relative viability is 0.555.

With NCI-H520 as the cell line, how does the relative viability read?
The relative viability was 0.234.

With NCI-H2126 as the cell line, how does the relative viability read?
The relative viability was 0.347.

EMC-BAC-2 was tested. Which relative viability did it give?
The relative viability was 0.526.

With NCI-H2085 as the cell line, how does the relative viability read?
Its relative viability is 0.465.

HCC-366 was tested. Which relative viability did it give?
The relative viability was 0.452.

How did the relative viability turn out when NCI-H1648 was run?
Its relative viability is 0.28.

Same assay, conditions: first compound 1 µM

How did the relative viability turn out when NCI-H2342 was run?
The relative viability was 0.554.

NCI-H727 was tested. Which relative viability did it give?
The relative viability was 0.606.

For NCI-H1650, which relative viability is on record?
The relative viability was 0.343.

NCI-H1993 was tested. Which relative viability did it give?
Its relative viability is 0.553.

With SW 1573 as the cell line, how does the relative viability read?
The relative viability was 0.444.

For NCI-H838, which relative viability is on record?
Its relative viability is 0.241.

Which relative viability does the source give for LCLC-103H here?
Its relative viability is 0.513.

Which relative viability does the source give for NCI-H520 here?
Its relative viability is 0.225.

NCI-H2126 was tested. Which relative viability did it give?
Its relative viability is 0.412.

EMC-BAC-2 was tested. Which relative viability did it give?
Its relative viability is 0.534.

For NCI-H2085, which relative viability is on record?
Its relative viability is 0.474.

For HCC-366, which relative viability is on record?
Its relative viability is 0.435.

Which relative viability does the source give for NCI-H1648 here?
Its relative viability is 0.261.

Compound: CC1(C)CNc2cc(NC(=O)c3cccnc3NCc3ccncc3)ccc21 [Motesanib] + COc1cccc2cc(-c3nc([C@H]4CC[C@H](C(=O)O)CC4)n4ncnc(N)c34)[nH]c12 [OSI-027] (partner 0.5 µM)
Experiment: as above
Details: first compound 0.01 µM
Procedure, shortened: as §1

NCI-H2342 was tested. Which relative viability did it give?
Its relative viability is 0.555.

How did the relative viability turn out when NCI-H1623 was run?
Its relative viability is 0.454.

With NCI-H727 as the cell line, how does the relative viability read?
Its relative viability is 0.539.

Which relative viability does the source give for NCI-H1650 here?
The relative viability was 0.747.

How did the relative viability turn out when NCI-H1993 was run?
Its relative viability is 0.526.

Which relative viability does the source give for SW 1573 here?
Its relative viability is 0.561.

How did the relative viability turn out when NCI-H838 was run?
The relative viability was 0.448.

Which relative viability does the source give for LCLC-103H here?
The relative viability was 0.471.

NCI-H520 was tested. Which relative viability did it give?
The relative viability was 0.29.

How did the relative viability turn out when NCI-H2126 was run?
The relative viability was 0.815.

With EMC-BAC-2 as the cell line, how does the relative viability read?
Its relative viability is 0.398.

For NCI-H2085, which relative viability is on record?
The relative viability was 0.812.

With HCC-366 as the cell line, how does the relative viability read?
Its relative viability is 0.964.

With NCI-H596 as the cell line, how does the relative viability read?
The relative viability was 0.913.

NCI-H1648 was tested. Which relative viability did it give?
The relative viability was 0.275.

Which relative viability does the source give for NCI-H1563 here?
The relative viability was 0.754.

Same assay, conditions: first compound 0.03162 µM

For NCI-H2342, which relative viability is on record?
The relative viability was 0.654.

Which relative viability does the source give for NCI-H1623 here?
Its relative viability is 0.475.

How did the relative viability turn out when NCI-H727 was run?
Its relative viability is 0.767.

Which relative viability does the source give for NCI-H1650 here?
Its relative viability is 0.688.

NCI-H1993 was tested. Which relative viability did it give?
Its relative viability is 0.554.

For SW 1573, which relative viability is on record?
Its relative viability is 0.583.

With NCI-H838 as the cell line, how does the relative viability read?
Its relative viability is 0.313.

With LCLC-103H as the cell line, how does the relative viability read?
Its relative viability is 0.467.

How did the relative viability turn out when NCI-H520 was run?
Its relative viability is 0.226.

For NCI-H2126, which relative viability is on record?
Its relative viability is 0.737.

EMC-BAC-2 was tested. Which relative viability did it give?
The relative viability was 0.341.

With NCI-H2085 as the cell line, how does the relative viability read?
Its relative viability is 0.892.

HCC-366 was tested. Which relative viability did it give?
Its relative viability is 0.959.

Which relative viability does the source give for NCI-H596 here?
Its relative viability is 0.772.

With NCI-H1648 as the cell line, how does the relative viability read?
The relative viability was 0.283.

How did the relative viability turn out when NCI-H1563 was run?
The relative viability was 0.799.

Same assay, conditions: first compound 0.1 µM

How did the relative viability turn out when NCI-H2342 was run?
The relative viability was 0.672.

How did the relative viability turn out when NCI-H1623 was run?
The relative viability was 0.475.

How did the relative viability turn out when NCI-H727 was run?
Its relative viability is 0.833.

With NCI-H1650 as the cell line, how does the relative viability read?
Its relative viability is 0.725.

NCI-H1993 was tested. Which relative viability did it give?
Its relative viability is 0.552.

Which relative viability does the source give for SW 1573 here?
Its relative viability is 0.549.

NCI-H838 was tested. Which relative viability did it give?
Its relative viability is 0.394.

LCLC-103H was tested. Which relative viability did it give?
Its relative viability is 0.465.

For NCI-H520, which relative viability is on record?
Its relative viability is 0.231.

Which relative viability does the source give for NCI-H2126 here?
Its relative viability is 0.674.

How did the relative viability turn out when EMC-BAC-2 was run?
Its relative viability is 0.36.

With NCI-H2085 as the cell line, how does the relative viability read?
Its relative viability is 0.753.

With HCC-366 as the cell line, how does the relative viability read?
The relative viability was 0.863.

NCI-H596 was tested. Which relative viability did it give?
The relative viability was 0.732.

With NCI-H1648 as the cell line, how does the relative viability read?
Its relative viability is 0.268.

With NCI-H1563 as the cell line, how does the relative viability read?
The relative viability was 0.797.

Same assay, conditions: first compound 0.3162 µM

Which relative viability does the source give for NCI-H2342 here?
Its relative viability is 0.505.

NCI-H1623 was tested. Which relative viability did it give?
Its relative viability is 0.389.

With NCI-H727 as the cell line, how does the relative viability read?
The relative viability was 0.555.

How did the relative viability turn out when NCI-H1650 was run?
The relative viability was 0.562.

How did the relative viability turn out when NCI-H1993 was run?
Its relative viability is 0.543.

SW 1573 was tested. Which relative viability did it give?
Its relative viability is 0.736.

With NCI-H838 as the cell line, how does the relative viability read?
The relative viability was 0.438.

With LCLC-103H as the cell line, how does the relative viability read?
Its relative viability is 0.429.

Which relative viability does the source give for NCI-H520 here?
Its relative viability is 0.24.

For NCI-H2126, which relative viability is on record?
The relative viability was 0.774.

For EMC-BAC-2, which relative viability is on record?
The relative viability was 0.412.

Which relative viability does the source give for NCI-H2085 here?
Its relative viability is 0.67.

With HCC-366 as the cell line, how does the relative viability read?
The relative viability was 0.881.

NCI-H596 was tested. Which relative viability did it give?
Its relative viability is 0.6.

For NCI-H1648, which relative viability is on record?
Its relative viability is 0.275.

Which relative viability does the source give for NCI-H1563 here?
The relative viability was 0.752.

Same assay, conditions: first compound 1 µM

Which relative viability does the source give for NCI-H2342 here?
Its relative viability is 0.637.

For NCI-H1623, which relative viability is on record?
Its relative viability is 0.409.

How did the relative viability turn out when NCI-H727 was run?
Its relative viability is 0.425.

For NCI-H1650, which relative viability is on record?
The relative viability was 0.586.

Which relative viability does the source give for NCI-H1993 here?
The relative viability was 0.557.

How did the relative viability turn out when SW 1573 was run?
The relative viability was 0.709.

With NCI-H838 as the cell line, how does the relative viability read?
Its relative viability is 0.415.

With LCLC-103H as the cell line, how does the relative viability read?
Its relative viability is 0.466.

With NCI-H520 as the cell line, how does the relative viability read?
Its relative viability is 0.253.

For NCI-H2126, which relative viability is on record?
The relative viability was 0.781.

With EMC-BAC-2 as the cell line, how does the relative viability read?
The relative viability was 0.378.

How did the relative viability turn out when NCI-H2085 was run?
Its relative viability is 0.691.

For HCC-366, which relative viability is on record?
Its relative viability is 1.03.

How did the relative viability turn out when NCI-H596 was run?
Its relative viability is 0.75.

NCI-H1648 was tested. Which relative viability did it give?
The relative viability was 0.295.

Which relative viability does the source give for NCI-H1563 here?
Its relative viability is 0.704.
